According to patent publication US12264142B2, “Heterocyclic compounds” (FLORATEK PHARMA SA, priority 2019, dated 2025):
Like-named read-outs stand apart in the source and are kept apart here.

Columns and labels:
C. elegans [1] = assay: Life span assay on Automated Lifespan Machine (SND302, SND303); assay type: in vivo; settings: for Mean lifespan: area under the survival curve; for Age in days at 25% mortality / Age in days at 50% mortality / Age in days at 75% mortality / Age in days at 90% mortality / Age in days at 100% mortality: SND302, SND303 25 μM, Uro A, Resveratrol 50 μM; for Effect on lifespan: in words, compared to control
Experimental: An additional life span assay using an adapted standard protocol employed and published by the C. elegans Intervention Testing Program, or CITP was employed to assess the activity of SND302 and SND303. A positive and a negative control were included in the assay. In a preliminary experiment the optimal conditions for the life span analysis was determined and the stress level induced by the compounds as well as toxicity were measured.
For the life span assay over 300 worms per conditions were used and the study was conducted by InVivoBiosystems (USA) using an Automated Lifespan Machine (ALM) with proprietary modifications to improve temperature stability and image acquisition.
To prevent chemical modification or metabolism of the test article by the food bacteria, worms were fed on a lawn of UV-killed bacteria (UV-i bacteria). An overnight culture of E. coli strain WP-2 was pelleted, washed, filtered, and irradiated. A suspension of UV-i bacteria was spotted on NGM agar containing Streptomycin to inhibit growth of contaminating bacteria. The quantity and distribution of food bacteria was calibrated to ensure adequate access to food for the duration of assay while maintaining visibility of the worms.
Test article was delivered to worms by a method compatible with and previously validated on the Automated Lifespan Machine and used by the CIT [Lucanic, et. al. Impact of genetic background and experimental reproducibility on identifying chemical compounds with robust longevity effects. Nature Communications 8 (2017)]. A 200× stock solution was freshly prepared in DMSO immediately before application. 40 μl of DMSO stock (0.5% plate volume) was applied to the plate to coat the food bacteria and then chased immediately with 160 μl water to uniformly distribute a fine precipitate across the surface of the plate. This functioned to provide reservoirs of compound in food, agar, and agar surface.
The ALM used by InVivoBiosystems is based on the Caenorhabditis elegans lifespan machine published by Stroustrup, N. et al. The Caenorhabditis elegans Lifespan Machine. N at Methods 10, 665-670 (2013), with proprietary modifications to improve temperature stability and image acquisition. The scanner unit consists of a modified EPSON V850 and images are processed and analyzed using the ALM software 7. The machine time-of-death calls are trained and validated using the “storyboarding” feature of the ALM software.
The lifespan assay was designed and performed according to published and validated methods, Amrit, F. R. G., Ratnappan, R., Keith, S. A. & Ghazi, A. The C. elegans lifespan assay toolkit. Methods 68, 465-475 (2014); Lucanic, et. al. Manual Lifespan Assay Standard Operating Procedure. Caenorhabditis Intervention Testing Program https://figshare.com/articles/7_CITP_SOP_Manual_Lifespan_Assay/9738197/1. using a modified version of the Automated Lifespan Machine. Worms were age synchronized by bleaching and eggs were plated directly onto NGM agar seeded with UV-I bacteria (Day 1, hatch). On Day 3, when the worms had reached the late L4 stage, they were transferred to dishes containing 100 μM 5-Fluorodeoxyuridine (FUdR) to suppress progeny. On day 5, the worms were washed off the dishes and 30-50 worms were plated on each scanner dish. Plates were immobilized inverted on the bed of an Automated Lifespan Machine which scanned two images per hour of the plates continuously for the next 40 days.
Time of death calls exported from the ALM software were analyzed and plotted using the Lifelines software package developed by Davidson-Pilon, (2019). lifelines: survival analysis in Python. Journal of Open Source Software, 4(40), 1317.

[2] = test system: C. elegans gene expression; assay: Whole transcriptome analysis (RNA-Seq) of treated worms; assay type: in vivo
Experimental: To determine the mode of action for SND302 and SND303 the gene transcription in young and aged adults was analyzed by RNA-Seq (whole transcription analysis). For each condition, >300 worms were treated in parallel with the lifespan assay and maintained under identical conditions.
Differential gene expression was performed with EdgeR using […] likelihood ratio tests based on fitting linear models. The likelihood ratios were used to determine the p-values which were subsequently corrected for using the BH false discovery rate (fdr) method. Eventually, differential expressed genes were defined as genes with fdr-corrected p-value of 0.05 or lower, as well as a change in expression of at least 2-fold in a given between-group comparison. Compounds SND302 and SND303 were compared against Urolithin and Vehicle control. […] In general the transcriptomic data corroborates a differential effect for SND303 when compared to SND302 (FIGS. 1-4).
Worms for RNA-Seq were split from the same synchronized pool of worms for the lifespan with each of the three replicates being maintained and treated in parallel. More than 150 worms per replicate were harvested, cleaned by filtration, and frozen at −80° in Trizol. To extract RNA, samples were thawed, vigorously vortexed, and processed using the Direct-zol RNA Miniprep Kit (Zymo Research). All samples exceeded our threshold for RNA quantity and quality. RNA samples were submitted to Novogene Co. Ltd and subjected to more stringent QC, being tested on a Qubit for concentration and run on an agarose gel and on the Agilent […] assess RNA quality and integrity. […] The total RNA was then enriched for poly-mRNA using oligo(dT) paramagnetic beads. DNA libraries were then constructed from this input mRNA using the NEBNext Ultra™ II RNA Library Prep Kit.
These libraries were then further tested by the Qubit for concentration and the Agilent 2100 for library size distribution and quality. In order to properly pool the libraries and load them onto sequencing lanes to ensure the correct number of reads per sample, an even more precise quantification of the library was done via qPCR, and the samples were loaded onto the NovaSeq 6000 platform for a paired-end sequencing run of 150 bp for each end (PE150). The loading concentrations were designed to obtain at least 6.0 Gb (which is the number of billion bases of raw data, determined by the number of reads multiplied by the length of each read). A mean of 7.4 Gb (median 7.3 Gb) raw sequencing data was obtained across all samples, with a minimum of 6.3 Gb and a maximum of 8.5 Gb raw data. Sequencing run data quality control was performed both by Novogene and by an in-house analysis. The raw data set was analyzed for parameters such as the distribution of base quality along the length of the sequencing read, the distribution of error rate along the length of the sequencing read. Reads containing adapter sequences, with N>10% (where N means “base cannot be determined”) and with a low quality (Qscore<=5) for 50% or more of its total bases were removed.

C. elegans [3] = settings: Ryu et al 2016; cited from earlier work

**Q.** For `CC(C)NC(=O)Oc1ccc2c(c1)oc(=O)c1cc(OC(=O)NC(C)C)ccc12` [SND303], which “Median lifespan” value (C. elegans [1]; 25 μM) is on record?
**A.** 29.0 days

**Q.** What about the “Mean lifespan” value (C. elegans [1]; 25 μM) of the same molecule?
**A.** 27.6 days

**Q.** What about the “Age in days at 25% mortality” value (C. elegans [1]) of the same molecule?
**A.** 25 days

**Q.** What about the “Age in days at 50% mortality” value (C. elegans [1]) of the same molecule?
**A.** 29.0 days

**Q.** What about the “Age in days at 75% mortality” value (C. elegans [1]) of the same molecule?
**A.** 31.8 days

**Q.** What about the “Age in days at 90% mortality” value (C. elegans [1]) of the same molecule?
**A.** 33.9 days

**Q.** What about the “Age in days at 100% mortality” value (C. elegans [1]) of the same molecule?
**A.** 39.9 days

**Q.** What about the Effect on lifespan (C. elegans [1]) of the same molecule?
**A.** clear and statistically significant lifespan extension

**Q.** What about the Significant differentially-expressed genes ([2]; Day 3, compared to the controls (Vehicle and Urolithin A), 25 μM) of the same molecule?
**A.** 2-3 genes

**Q.** And the “Expression of gene C50F7.5” value ([2]; Day 10)?
**A.** significantly upregulated

**Q.** And the “Most significant differentially-expressed genes” value ([2]; Day 10, compared to vehicle)?
**A.** 7 genes

**Q.** What about the Significant differentially-expressed genes ([2]; Day 10, compared with the UroA control) of the same molecule?
**A.** 3 genes

**Q.** For `O=c1oc2cc(O)ccc2c2ccc(O)cc12` [Urolithin A, reference compound], which “Median lifespan” value (C. elegans [1]; 50 μM) is on record?
**A.** 27.8 days

**Q.** And the “Mean lifespan” value (C. elegans [1]; 50 μM)?
**A.** 27.0 days

**Q.** And the “Age in days at 25% mortality” value (C. elegans [1])?
**A.** 23.8 days

**Q.** And the “Age in days at 50% mortality” value (C. elegans [1])?
**A.** 27.8 days

**Q.** And the “Age in days at 75% mortality” value (C. elegans [1])?
**A.** 30.2 days

**Q.** And the “Age in days at 90% mortality” value (C. elegans [1])?
**A.** 32.3 days

**Q.** And the “Age in days at 100% mortality” value (C. elegans [1])?
**A.** 37.7 days

**Q.** And the Effect on lifespan (C. elegans [1])?
**A.** did not produce a significant change in lifespan

**Q.** And the Effect on lifespan (C. elegans [3])?
**A.** extended lifespan

**Q.** What about the Differentially-expressed genes ([2]; Urolithin A compared with the vehicle control) of the same molecule?
**A.** no differentially-expressed genes
